Data set [1] deals with T1, 11-beta-hydroxysteroid dehydrogenase 1 (Homo sapiens, UniProt P28845).
Description: Displacement of [3H]cortisone from human recombinant 11beta-HSD1 by SPA
The target in data set [2] is T1, 11-beta-hydroxysteroid dehydrogenase 1. This is another data set of the same source.
Description: Inhibition of human 11beta-HSD1 over expressed in CHO cells by whole cell assay
A short description of data set [3]: Cmax in Sprague-Dawley rat at 10 mg/kg, po. To be noted: in vivo. Format: ADME, organism-based. On the set-up: dose 10 mg/kg, route oral.
The nature of data set [4]: Volume of distribution in Sprague-Dawley rat at 2 mg/kg, iv. Format: ADME, organism-based. On the set-up: dose 2 mg/kg, route intravenous. To be noted: in vivo, read-out: Vss.
A short description of data set [5]: Clearance in Sprague-Dawley rat at 2 mg/kg, iv. Format: ADME, organism-based. Details: dose 2 mg/kg, route intravenous. To be noted: in vivo.
Data set [6] can be described thus: Oral bioavailability in Sprague-Dawley rat at 10 mg/kg, po. In kind it is ADME, organism-based. To be noted: in vivo.
Data set [7] concerns the target 11-beta-hydroxysteroid dehydrogenase type 2 (Homo sapiens, UniProt P80365). The data set can be described thus: Inhibition of human 11beta-HSD2.
The next data set has as its target T2, Glucocorticoid receptor (Homo sapiens, UniProt P04150).
T2 sequence (P04150 whole entry): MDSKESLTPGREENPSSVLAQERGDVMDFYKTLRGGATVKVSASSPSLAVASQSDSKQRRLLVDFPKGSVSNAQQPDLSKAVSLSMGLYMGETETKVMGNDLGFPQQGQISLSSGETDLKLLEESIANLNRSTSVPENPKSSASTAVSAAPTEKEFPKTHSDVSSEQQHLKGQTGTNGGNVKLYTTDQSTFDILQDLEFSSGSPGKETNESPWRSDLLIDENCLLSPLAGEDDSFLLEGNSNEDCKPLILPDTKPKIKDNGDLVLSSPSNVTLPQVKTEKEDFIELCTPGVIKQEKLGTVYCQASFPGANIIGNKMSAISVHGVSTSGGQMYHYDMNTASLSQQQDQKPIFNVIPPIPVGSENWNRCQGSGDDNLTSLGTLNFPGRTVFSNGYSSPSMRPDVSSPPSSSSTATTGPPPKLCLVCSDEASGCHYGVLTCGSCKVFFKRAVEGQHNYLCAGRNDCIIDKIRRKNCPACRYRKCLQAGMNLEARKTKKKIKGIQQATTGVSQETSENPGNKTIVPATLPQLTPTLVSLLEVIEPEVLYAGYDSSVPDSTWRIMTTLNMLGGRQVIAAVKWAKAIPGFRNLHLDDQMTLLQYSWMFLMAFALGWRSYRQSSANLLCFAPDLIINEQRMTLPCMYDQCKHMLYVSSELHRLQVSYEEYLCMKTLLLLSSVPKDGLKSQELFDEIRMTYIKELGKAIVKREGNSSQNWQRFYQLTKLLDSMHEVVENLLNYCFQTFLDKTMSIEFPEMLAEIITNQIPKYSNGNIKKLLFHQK
Kind of data set: Inhibition of glucocorticoid receptor.

The target in data set [8] is 11-beta-hydroxysteroid dehydrogenase 1 (Mus musculus, UniProt P50172). The data set can be described thus: Inhibition of murine 11beta-HSD1.
In data set [9] the target is 11-beta-hydroxysteroid dehydrogenase 1 (Mus musculus) (UniProt P50172). Kind of data set: Reduction of 11beta-HSD1 activity in C57/B16 mouse at 30 mg/kg, po after 2 hrs. In kind it is organism-based. Details: dose 30 mg/kg; scale not given: the % may be the effect or the level left.
For data set [10] the target is unchanged. The data set can be described thus: Reduction of 11beta-HSD1 activity in C57/B16 mouse at 30 mg/kg, po after 6 hrs. Format: organism-based. On the set-up: dose 30 mg/kg; scale not given: the % may be the effect or the level left.
The nature of data set [11]: Drug level in adipose in C57/B16 mouse at 30 mg/kg, po after 2 hrs. In kind it is ADME, organism-based. On the set-up: dose 30 mg/kg, route oral. To be noted: read-out: Drug uptake.
The nature of data set [12]: Drug level in adipose in C57/B16 mouse at 30 mg/kg, po after 6 hrs. Format: ADME, organism-based. Details: dose 30 mg/kg, route oral. To be noted: read-out: Drug uptake.
Data set [13] is described as follows: Drug level in C57/B16 mouse plasma at 30 mg/kg, po after 2 hrs. Format: ADME, organism-based. On the set-up: dose 30 mg/kg, route oral.
The nature of data set [14]: Drug level in C57/B16 mouse plasma at 30 mg/kg, po after 6 hrs. On the set-up: dose 30 mg/kg, route oral. In kind it is ADME, organism-based.

pIC50, pKi: −log10 of the molar value.

In general, pKi refers to the Ki on a negative log10 scale, so that one unit is a factor of ten. As a reminder, the pIC50 is the IC50 on a negative log10 scale, so that one unit is a factor of ten. As a reminder, the Cmax is the maximum level reached in the sampled fluid or tissue. As a reminder, the clearance is the rate of elimination divided by the concentration. Usually bioavailability stands for the share of a dose that reaches the circulation, judged against a reference dose that is usually intravenous.

T1 sequence (P28845 whole entry): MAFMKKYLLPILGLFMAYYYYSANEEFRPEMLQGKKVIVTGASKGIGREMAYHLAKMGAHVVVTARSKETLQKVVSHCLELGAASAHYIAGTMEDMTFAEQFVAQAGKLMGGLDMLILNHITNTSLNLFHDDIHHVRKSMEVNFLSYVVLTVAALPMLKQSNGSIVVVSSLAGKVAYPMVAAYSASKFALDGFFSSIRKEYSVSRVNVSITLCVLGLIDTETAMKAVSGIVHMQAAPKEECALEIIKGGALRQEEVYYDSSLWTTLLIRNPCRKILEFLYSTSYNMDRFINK
Sequence of 11-beta-hydroxysteroid dehydrogenase 1 (Mus musculus) (P50172 whole entry, looked up): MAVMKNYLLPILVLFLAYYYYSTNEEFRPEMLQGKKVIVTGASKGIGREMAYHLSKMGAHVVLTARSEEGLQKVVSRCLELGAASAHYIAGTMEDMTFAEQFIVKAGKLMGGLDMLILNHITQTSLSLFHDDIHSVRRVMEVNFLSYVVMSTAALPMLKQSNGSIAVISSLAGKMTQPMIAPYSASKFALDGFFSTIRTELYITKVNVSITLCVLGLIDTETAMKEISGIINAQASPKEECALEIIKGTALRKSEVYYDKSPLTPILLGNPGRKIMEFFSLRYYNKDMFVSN
Sequence of 11-beta-hydroxysteroid dehydrogenase type 2 (P80365 whole entry, looked up): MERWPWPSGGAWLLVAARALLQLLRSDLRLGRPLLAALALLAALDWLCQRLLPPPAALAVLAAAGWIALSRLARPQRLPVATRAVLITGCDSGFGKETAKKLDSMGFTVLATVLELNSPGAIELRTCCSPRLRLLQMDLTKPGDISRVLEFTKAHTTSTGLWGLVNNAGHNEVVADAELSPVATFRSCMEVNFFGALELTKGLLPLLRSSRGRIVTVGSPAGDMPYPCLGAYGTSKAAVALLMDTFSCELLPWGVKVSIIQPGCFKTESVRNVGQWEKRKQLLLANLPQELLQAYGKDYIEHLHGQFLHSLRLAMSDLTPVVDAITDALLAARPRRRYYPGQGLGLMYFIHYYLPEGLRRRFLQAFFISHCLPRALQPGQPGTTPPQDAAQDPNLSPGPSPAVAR
Sequence of 11-beta-hydroxysteroid dehydrogenase 1 (Mus musculus, UniProt P50172) (P50172 whole entry): as the sequence (P50172 whole entry, looked up) above

`CC(C)C1(C)SC(NCc2ccccc2)=NC1=O` (configuration not stated) showed a pKi in data set [1] of 7.19. In [2], this compound had a pIC50 of 7.28.
In data set [3], `C[C@H](NC1=NC(=O)C(C)(C(C)(C)F)S1)c1ccccc1F` (some centres not stated) came in with a Cmax of 1080 ng/mL. In addition, in data set [4], the Vd was found to be 1.66 L/kg. In data set [5], this compound gave a clearance of 14.8 mL/min/kg. This compound also showed a bioavailability in data set [6] of 47%.
`C[C@H](NC1=NC(=O)[C@](C)(C(F)(F)F)S1)c1ccccc1F` came in with a Cmax in data set [3] of 1230 ng/mL. In data set [4], the Vd was determined as 1.66 L/kg. The compound also showed a clearance in [5] of 9.6 mL/min/kg. In data set [6], the bioavailability was found to be 50%. Besides, in [1], the pKi is 7.32. In data set [2], this compound showed a negative-log IC50 (pIC50) of 7.02.
The compound `C[C@H](NC1=NC(=O)[C@@](C)(C(F)(F)F)S1)c1ccccc1F` displayed a Cmax in data set [3] of 4630 ng/mL. Besides, the Vd in data set [4] was determined as 1.2 L/kg. The same compound showed a clearance in data set [5] of 3.13 mL/min/kg. The compound further registered a bioavailability in data set [6] of 75%. Besides, the pIC50 in data set [7] was below 5.00; at Glucocorticoid receptor, below 4.30; in data set [2] it was 7.48. Further, the pKi in [8] is 6.89; in data set [1], 7.66. Further, the Activity in [9] was found to be 88%; in data set [10] it was 91%. Further, the concentration at 2 h was 234 µM in data set [11] and 55 µM in [13]. The concentration at 6 h worked out at 113 µM in [12] and 35 µM in data set [14].
Compound `CC(C)[C@]1(C)SC(N[C@@H](C)c2ccccc2F)=NC1=O` registered a Cmax in [3] of 176 ng/mL. The Vd in data set [4] was 5.73 L/kg. This compound also showed a clearance in data set [5] of 42.8 mL/min/kg. The compound also showed a bioavailability in [6] of 20%.
As to `C[C@H](NC1=NC(=O)C(C)(C(F)(F)F)S1)c1ccccc1F` (some centres not stated), the maximum concentration (Cmax) in data set [3] worked out at 1040 ng/mL. Moreover, in [4], the Vd is 2.98 L/kg. This compound also gave a clearance in [5] of 8.35 mL/min/kg. The compound further showed a bioavailability in data set [6] of 55%. For the same compound, in data set [1], the pKi was 7.70. Moreover, the pIC50 in data set [2] is 7.25.

The values are drawn from ChEMBL document CHEMBL1141395, “2-(S)-phenethylaminothiazolones as potent, orally efficacious inhibitors of 11beta-hydroxysteriod dehydrogenase type 1” (J Med Chem, 2007).
